Laboratory results taken from patent publication US20250186542A1, “COMPOSITION CONTAINING PEPTIDE COMPOUND FOR USE WITH SURFACTANT” (CHUGAI SEIYAKU KABUSHIKI KAISHA, priority 2022, published 2025).
≈ marks a conversion by molar mass, not a printed value. Bridge positions count the residues as written; N and C are the ends. Square brackets hold non-standard residues; d marks the D form. Peptide text beside a SMILES is read from it. * marks the point of attachment. ξ: configuration not given here. hPhe(3-Cl-4-CF3) = N[C@@H](CCc1ccc(C(F)(F)F)c(Cl)c1)C(=O)O; Phe(3-Cl) = N[C@@H](Cc1cccc(Cl)c1)C(=O)O; NMeCha = CN[C@@H](CC1CCCCC1)C(=O)O; NMeChg = CN[C@H](C(=O)O)C1CCCCC1; NMeF = CN[C@@H](Cc1ccccc1)C(=O)O; NMeD = CN[C@@H](CC(=O)O)C(=O)O; dNMeD = CN[C@H](CC(=O)O)C(=O)O; dNMeL = CN[C@H](CC(C)C)C(=O)O; ξIle = CC[C@H](C)C(N)C(=O)O; NMeS = CN[C@@H](CO)C(=O)O; Pip = O=C(O)[C@@H]1CCCCN1; Nle = CCCC[C@H](N)C(=O)O; Piperidide = C1CCN(*)CC1; Pyrrolidide = C1CCN(*)C1; dNMeA = CN[C@H](C)C(=O)O; Ac5c = NC1(C(=O)O)CCCC1; Sar = CNCC(=O)O; Propyl = CCC*

What was measured:
Caco-2 cells = experiment: Evaluation of Caco-2 membrane permeability; type: in vitro ADME; conditions: HBSS pH 7.4 4% BSA basal, 180 minutes; for Without 5 mM lauroyl-L-carnitine Permeability coefficient (Caco-2 Papp): 10 µM compound in FaSSIF/HBSS pH 6.5 apical, no lauroyl-L-carnitine; for With 5 mM lauroyl-L-carnitine Permeability coefficient (Caco-2 Papp): 10 µM compound, 5 mM lauroyl-L-carnitine in FaSSIF/HBSS pH 6.5 apical
Protocol: (§1) In the above measurements, a Pgp inhibitor, such as Zosquidar, can be added to the FaSSIF/HBSS buffer and the HBSS buffer, respectively.
(§2) After step (step 1) and before step (step 2) of the above, pre-incubation can be performed by allowing each well to stand at 5% CO2, 37° C., 80 rpm for 20 to 24 hours.
(§3) After pre-incubation, the solution at the Basal side can be removed and washed, and a new solution of the same composition can be added. A Pgp inhibitor can also be added to the new solution. When the pre-incubation is performed, it is preferable that a DMEM solution (pH 7.4) containing 4% BSA is used instead of the HBSS buffer (pH 7.4).
(§4) In addition, as the concentration of the substance to be evaluated on the donor side used in the calculation of the permeability coefficient in step (step 3) above, the concentration when initially added can be used, or the concentration measured by collecting the solution at the Apical side before the start of pre-incubation or the start of shaking in the above step (step 2) can be used. In particular, when the preincubation is performed, it is preferable to use the concentration of the solution at the Apical side collected before pre-incubation.

[1] = Evaluation of solubility in 50 mM phosphate buffer (PPB, pH 6.5); type: physicochemical
Protocol: To an excessive amount of a lyophilized powder of the compound, 50 mM phosphate buffer (PPB, pH 6.5) is added, and after shaking (37° C., 1 atm, 1800 rpm, for 22 to 24 hours), the mixture is filtered with a filter, and the compound concentration of the filtrate is measured by LC/MS/MS. Solubility (g/mL) is calculated from the measured compound concentration.
Solubility (μg/mL) was calculated from the measured compound concentration.

[2] = Evaluation of Caco-2 membrane permeability; type: in vitro ADME; conditions: human
Protocol: as §1, §2, §3, §4

[3] = 50 mM phosphate buffer pH 6.5, 37° C., 1 atm, 22 to 24 hours, read-out: PPB solubility
[4] = Caco-2, With 5 mM lauroyl-L-carnitine Permeability coefficient (Caco-2 Papp)
[5] = Caco-2, Without 5 mM lauroyl-L-carnitine Permeability coefficient (Caco-2 Papp)

| Without 5 mM lauroyl-L-carnitine Permeability coefficient (Caco-2 Papp) (Caco-2 cells) [×10⁻⁶ cm/s] | With 5 mM lauroyl-L-carnitine Permeability coefficient (Caco-2 Papp) (Caco-2 cells) [×10⁻⁶ cm/s] | solubility [1, 3] [µg/mL] | Papp A→B at 180 min ([2]; Caco-2, 5 mM lauroyl-L-carnitine in FaSSIF/HBSS pH 6.5 apical, HBSS pH 7.4 4% BSA basal, 180 minutes) [×10⁻⁶ cm/s] | Compound | Papp A→B at 180 min [2, 4] [×10⁻⁶ cm/s] | Papp A→B at 180 min [2, 5] [×10⁻⁶ cm/s] | solubility ([1]; pH 6.5) [µg/mL] |
| --- | --- | --- | --- | --- | --- | --- | --- |
| 0.0491 | 0.265 | 1.18 (≈ 0.81 µM) | – | CC[C@H](C)[C@@H]1NC(=O)[C@H](CC(C)C)N(C)C(=O)CC(C(=O)N2CCOCC2)N(C)C(=O)[C@H](C2CCCC2)N(C)C(=O)C2(CCCC2)NC(=O)[C@@H]2CCCN2C(=O)[C@H](CCc2ccc(C(F)(F)F)c(Cl)c2)NC(=O)CN(C)C(=O)[C@H](CC2CCCCC2)N(C)C(=O)[C@@H]2CCN2C(=O)[C@H](C)N(C)C1=O (single isomer, unassigned) [Compound 2] | – | – | – |
| – | – | – | – | CC[C@H](C)[C@@H]1NC(=O)[C@H](CC(C)C)N(C)C(=O)CC(C(=O)N2CCOCC2)N(C)C(=O)[C@H](C2CCCC2)N(C)C(=O)C2(CCCC2)NC(=O)[C@@H]2CCCN2C(=O)[C@H](CCc2ccc(C(F)(F)F)c(Cl)c2)NC(=O)CN(C)C(=O)[C@H](Cc2ccc(C)cc2)N(CC)C(=O)[C@@H]2CCN2C(=O)[C@H](C)N(C)C1=O (single isomer, unassigned) [Compound 3] | 0.366 | 0.215 | 1.81 (≈ 1.22 µM) |
| 0.00949 | 0.0214 | 9.18 (≈ 6.74 µM) | – | CC[C@H](C)[C@@H]1NC(=O)C(CC(C)C)N(C)C(=O)CC(C(=O)N(C)C)N(C)C(=O)[C@H](C2CCCC2)N(C)C(=O)C(C)NC(=O)C(C)N(C)C(=O)[C@H](CCc2ccc(C(F)(F)F)c(Cl)c2)NC(=O)CN(C)C(=O)[C@H](CC2CCCCC2)N(C)C(=O)[C@@H]2CCN2C(=O)[C@H](C)N(C)C1=O (single isomer, unassigned) [Compound 9] | – | – | – |
| <0.00976 | – | 101 (≈ 71.6 µM) | 0.014 | CC[C@H](C)[C@@H]1NC(=O)[C@H](CC(C)C)N(C)C(=O)CC(C(=O)N2CCOCC2)N(C)C(=O)[C@H](C2CCCC2)N(C)C(=O)C2(CCCC2)NC(=O)[C@@H]2CCCN2C(=O)[C@H](CCc2ccc(C(F)(F)F)c(Cl)c2)NC(=O)CN(C)C(=O)[C@H](C2CCCC2)N(C)C(=O)[C@@H]2CCN2C(=O)[C@H](C)NC1=O (single isomer, unassigned) [Compound 10] | – | – | – |
| – | – | – | – | CCCCN1CC(=O)N(C)[C@@H](CC(C)C)C(=O)N[C@@H](Cc2ccc(C(=O)NS(C)(=O)=O)c(OC)c2)C(=O)N(C)[C@@H](CC(C)C)C(=O)N(C)[C@@H](CC(C)C)C(=O)NC(C(=O)N2CCCCC2)CC(=O)NC(CC(C)C)C(=O)N(C)[C@@H](Cc2ccccc2)C(=O)NC(C(C)C)C(=O)N(C)[C@@H](CC(C)C)C(=O)N[C@@H]([C@H](C)O)C1=O (single isomer, unassigned) [Compound 11] | 0.0302 | 0.00921 | 16.2 (≈ 10.3 µM) |
| <0.0944 | 0.526 | 5.76 (≈ 4.11 µM) | – | CC[C@@H](C)[C@H]1NC(=O)[C@@H](Cc2ccccc2)N(C)C(=O)CN(C)C(=O)C[C@@H](C(=O)N2CCCCC2)NC(=O)[C@@H](CC(C)C)N(C)C(=O)[C@@H](COC(C)(C)C)NC(=O)[C@@H](CC(C)C)N(C)C(=O)[C@@H](CCc2ccccc2)N(C)C(=O)CN(C)C(=O)[C@@H]([C@H](C)O)NC(=O)[C@@H](CC(C)C)N(C)C1=O (stereo in doubt) [Compound 7] | – | – | – |
| 0.0142 | 0.253 | 1.12 (≈ 0.777 µM) | – | CC[C@H](C)C1NC(=O)[C@@H](CC(C)C)N(C)C(=O)C[C@H](C(=O)N2CCCCC2)N(C)C(=O)[C@H](C2CCCCC2)N(C)C(=O)C2(CCCC2)NC(=O)[C@@H]2CCCN2C(=O)[C@H](CCc2ccc(C(F)(F)F)c(Cl)c2)NC(=O)CN(C)C(=O)[C@H](CC2CCCCC2)N(C)C(=O)CN(C)C(=O)CN(C)C1=O (some centres unmarked) [Compound 1] ([dNMeL][ξIle][Sar][Sar][NMeCha][Sar][hPhe(3-Cl-4-CF3)]P[Ac5c][NMeChg][dNMeD]-Piperidide; lactam N-11) | – | – | – |
| 0.00372 | 0.0264 | – | – | CCCC[C@@H]1NC(=O)[C@@H]2CCCN2C(=O)[C@H](CCCC)NC(=O)[C@@H](C)N(C)C(=O)C[C@@H](C(=O)N2CCCC2)N(C)C(=O)[C@@H]2CCCN2C(=O)[C@H]([C@@H](C)CC)NC(=O)[C@@H]2CCCCN2C(=O)[C@H](Cc2cccc(Cl)c2)NC(=O)[C@H](COCCC)N(C)C(=O)[C@H](Cc2ccccc2)N(C)C1=O [Compound 5] ([dNMeA][Nle]P[Nle][NMeF][NMeS](Propyl)[Phe(3-Cl)][Pip]IP[NMeD]-Pyrrolidide; lactam N-11) | – | – | – |

| Compound | Without 5 mM lauroyl-L-carnitine Permeability coefficient (Caco-2 Papp) (Caco-2 cells) [×10⁻⁶ cm/s] | With 5 mM lauroyl-L-carnitine Permeability coefficient (Caco-2 Papp) (Caco-2 cells) [×10⁻⁶ cm/s] | solubility [1, 3] [µg/mL] | Papp A→B at 180 min ([2]; Caco-2, 5 mM lauroyl-L-carnitine in FaSSIF/HBSS pH 6.5 apical, HBSS pH 7.4 4% BSA basal, 180 minutes) [×10⁻⁶ cm/s] | Papp A→B at 180 min [2, 4] [×10⁻⁶ cm/s] | Papp A→B at 180 min [2, 5] [×10⁻⁶ cm/s] | solubility ([1]; pH 6.5) [µg/mL] |
| --- | --- | --- | --- | --- | --- | --- | --- |
| CC[C@H](C)[C@@H]1NC(=O)[C@H](CC(C)C)N(C)C(=O)CC(C(=O)N2CCCCC2)N(C)C(=O)[C@H](C2CCCC2)N(C)C(=O)C2(CCCC2)NC(=O)[C@@H]2CCCN2C(=O)[C@H](CCc2ccc(C(F)(F)F)c(Cl)c2)NC(=O)CN(C)C(=O)[C@H](CC2CCCCC2)N(C)C(=O)[C@@H]2CCN2C(=O)[C@H](C)N(C)C1=O (single isomer, unassigned) [Compound 8] | 0.042 | 0.154 | 1.13 (≈ 0.777 µM) | – | – | – | – |
